Data on 9 compounds can be found in PubChem BioAssay (NCI).

SMILES strings stand for the structures.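 Grown in 96-well plates, cells were treated for 48 hours with each compound at five concentrations. Insufficient inhibition: endpoint recorded as highest concentration tested. Here, GI50 denotes the concentration required for 50% inhibition of growth. At the TGI there is no net growth.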

Experiment in all cases: NCI tumour cell line growth inhibition, 48 h
Assay [1] relates to K-562 leukemia.
Assay [2] relates to BT-549 breast.
For assay [3], the system named is SN12C renal.
For assay [4], the system named is MALME-3M melanoma.
Assay [5] relates to UACC-257 melanoma.
Assay [6] deals with HCT-15 colon.
The test system of assay [7] is SK-MEL-2 melanoma.
In assay [8] the test system is HCC-2998 colon.

`Clc1nc(Cl)c2ncn(Cc3ccccc3Cn3cnc4c(Cl)nc(Cl)nc43)c2n1`: the GI50 is 2.6 µM in assay [1]; 0.165 µM in assay [2]; 2.31 µM in assay [3]; 0.211 µM in assay [4]; 9.62 µM in assay [5]; 1.47 µM in assay [6]. Also, the GI50 in assay [7] is 8.96 µM; in assay [8] it was 1.88 µM. Also, the TGI in assay [1] was 6.8 µM; in assay [2], 1.52 µM; in assay [3], 7.24 µM; in assay [4] it was 6.18 µM; in assay [5], 25.4 µM; in assay [6], 3.32 µM. The results for the TGI in assay [7] and in assay [8] were 27.8 µM and 3.56 µM, respectively.
Regarding `COc1cc(/C=C/C(=O)C(C(=O)/C=C/c2ccc(OC(=O)CCNC34CC5CC(CC(C5)C3)C4)c(OC)c2)C(=O)CCNC23CC4CC(CC(C4)C2)C3)ccc1OC(=O)CCNC12CC3CC(CC(C3)C1)C2` (centres undefined), the GI50 is 1.99 µM in assay [1]; 2.5 µM in assay [2]; 2.85 µM in assay [3]; 2.44 µM in assay [4]; 3.45 µM in assay [5]; 3.21 µM in assay [6]. Besides, the GI50 in assay [7] was 3.53 µM; in assay [8] it was 1.93 µM. The TGI is 4.97 µM in assay [1]; 5.77 µM in assay [2]; 9.48 µM in assay [3]; 9.92 µM in assay [4]; 14 µM in assay [5]; 7.51 µM in assay [6]. Further, the TGI is > 100 µM in assay [7] and 3.84 µM in assay [8].
Take `NCCCn1c2c(c3ccccc3c1=O)C(=O)c1ccccc1-2`: the GI50 in assay [1] was 0.0857 µM; in assay [2], 1.47 µM; in assay [3], 0.0791 µM; in assay [4], 0.156 µM; in assay [5] it was 0.544 µM; in assay [6], 0.0762 µM. Besides, the GI50 in assay [7] was 4.31 µM; in assay [8], 0.0684 µM. For the same compound, the TGI stood at 10.4 µM in assay [1]; 12.4 µM in assay [2]; 0.465 µM in assay [3]; 1.46 µM in assay [4]; 2.19 µM in assay [5]; 1.38 µM in assay [6]. The TGI amounted to 12.5 µM in assay [7] and 1.01 µM in assay [8].
Take `C=C1C(O)C2C(=C(C)C13CC3)C(=O)C(C)(C)C2OC` (centres undefined): the GI50 in assay [1] was 42.9 µM; in assay [2], > 100 µM; in assay [3], > 100 µM; in assay [4] it was > 100 µM; in assay [5], 44.4 µM; in assay [6] it was > 100 µM. Besides, the GI50 in assay [7] and in assay [8] was > 100 µM throughout. Moreover, the TGI in assay [1], in assay [2], in assay [3], in assay [4], in assay [5] and in assay [6] was > 100 µM in each case. For the same compound, the TGI in assay [7] and in assay [8] was > 100 µM throughout.
As to `CNC(C)[C@H]1CCC2C3CC=C4C(=O)[C@@H](NC(=O)C=C(C)C)CC[C@]4(C)C3CC[C@@]21C` (some centres undefined), the GI50 was 0.478 µM in assay [1]; 2.34 µM in assay [2]; 2.46 µM in assay [3]; 1.64 µM in assay [4]; 2.33 µM in assay [5]; 1.14 µM in assay [6]. The values for the GI50 in assay [7] and in assay [8] were 2.74 µM and 0.626 µM, respectively. Moreover, the TGI came out at 2.19 µM in assay [1]; 8.42 µM in assay [2]; 10.5 µM in assay [3]; 3.47 µM in assay [4]; 5.54 µM in assay [5]; 2.89 µM in assay [6]. The TGI in assay [7] was determined as 6.9 µM; in assay [8] it was 3.02 µM.
As to `COC(=O)[C@]12CC[C@@H](C)[C@H](C)[C@@H]1C1=CC[C@@H]3[C@@]4(C)C(C=O)=C[C@@](C)(COC(=O)c5ccco5)[C@@H]4[C@H](O)C[C@@]3(C)[C@]1(C)CC2`, the GI50 in assay [1] is 2.96 µM; in assay [2], 2.07 µM; in assay [3], 3.44 µM; in assay [4] it was 0.224 µM; in assay [5] it was 0.263 µM; in assay [6], 1.51 µM. The GI50 in assay [7] was 0.423 µM; in assay [8], 1.92 µM. The TGI in assay [1] amounted to 9.96 µM; in assay [2], 6.65 µM; in assay [3] it was 83.2 µM; in assay [4], 1.17 µM; in assay [5], 0.997 µM; in assay [6], 3.09 µM. Moreover, the TGI in assay [7] was 1.9 µM; in assay [8], 3.71 µM.
Turning to `C=C(C)[C@@H]1CC[C@]2(C)[C@H](CC[C@@H]3[C@@H]([C@@](C)(O)CCC=C(C)C)CC[C@]32C)[C@@]1(C)CCC(=O)O`, the GI50 in assay [1] is 18.5 µM; in assay [2], 16.8 µM; in assay [3], 17.2 µM; in assay [4], 14.4 µM; in assay [5] it was 23.8 µM; in assay [6] it was 15.4 µM. For the same compound, the GI50 in assay [7] was 17.6 µM; in assay [8], 21.2 µM. Also, the TGI in assay [1] is 90.5 µM; in assay [2] it was 35.8 µM; in assay [3], 40.5 µM; in assay [4] it was 28.2 µM; in assay [5], 96.4 µM; in assay [6], 31 µM. The TGI in assay [7] is 39 µM; in assay [8] it was 37.8 µM.
Regarding `COc1cc2c3c(n(CCCN(C)CCO)c(=O)c2cc1OC)-c1cc2c(cc1C3=O)OCO2`, the GI50 in assay [1] was 0.439 µM; in assay [2] it was 3.13 µM; in assay [3], 2.75 µM; in assay [4] it was > 55.7 µM; in assay [5], > 62.6 µM; in assay [6] it was 6.79 µM. For the same compound, the GI50 was > 100 µM in assay [7] and 7.05 µM in assay [8]. Further, the TGI in assay [1] was 54.7 µM; in assay [2], > 22.3 µM; in assay [3], > 100 µM; in assay [4] it was > 100 µM; in assay [5] it was > 100 µM; in assay [6] it was > 100 µM. The TGI in assay [7] was > 100 µM; in assay [8] it was > 52.1 µM.
For `Oc1ccc(N=Nc2nccs2)c(O)c1`, the GI50 was 3.58 µM in assay [1]; 16.1 µM in assay [2]; 9.42 µM in assay [3]; 14.7 µM in assay [4]; 16.4 µM in assay [5]; 2.85 µM in assay [6]. Further, the GI50 in assay [7] is 17.1 µM; in assay [8], 3.92 µM. The TGI in assay [1] was 34.3 µM; in assay [2], 57.6 µM; in assay [3], 38.7 µM; in assay [4], 34.3 µM; in assay [5], 60.1 µM; in assay [6], 14.9 µM. For the same compound, the TGI was 60.3 µM in assay [7] and 15 µM in assay [8].
